Experimental data: patent US4782014A, “Assay and purification of amyloid components, applications, and kits therefor” (Ciba-Geigy Corporation, priority 1985, dated 1988)

Columns and labels:
[1] = target: human SAP binding to TNP-KLH coated polystyrene (Homo sapiens, UniProt P02743); assay: Inhibition of binding of human SAP to TNP-KLH coated polystyrene; settings: for IC50 / concentration at 50% inhibition of human SAP binding to TNP-KLH coated polystyrene: 40 ng/ml human SAP, preincubated 2 hours at 20° C.; for IC50: read-out: concentration at 50% inhibition of human SAP binding to TNP-KLH coated polystyrene
human SAP binding to TNP-KLH coated polystyrene, sequence (P02743 20-223): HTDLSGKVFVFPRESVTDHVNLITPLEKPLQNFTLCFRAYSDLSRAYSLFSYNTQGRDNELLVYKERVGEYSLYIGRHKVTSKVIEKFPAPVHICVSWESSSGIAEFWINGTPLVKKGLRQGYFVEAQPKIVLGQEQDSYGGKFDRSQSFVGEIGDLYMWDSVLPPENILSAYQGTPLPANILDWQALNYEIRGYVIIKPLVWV
Experimental: The samples containing 40 ng/ml human SAP are preincubated with dilutions of the compound to be tested as an inhibitor for two hours at 20° C. The perent decrease in SAP binding to TNP-KLH is calculated in comparison to the SAP binding in the absence of any inhibitor.

[2] = ELISA for SAP: binding of purified human SAP to plastic surface
Experimental: The wells of flat-bottom polystyrene microtiter plates (Immulon®, Dynatech, Zug, Switzerland) or polyvinyl chloride microtiter plates (Microtest III™, Becton Dickinson, Oxnard, CA, USA) are incubated with either 100 μl 0.3M NaHCO3 alone, 100 μl KLH 2 μg/ml in 0.3M NaHCO3, or 100 μl TNP-KLH (Example 1) 2 μg/ml in 0.3M NaHCO3 for one hour or more at room temperature. […] The plates are washed with 5 mM CaCl2, then incubated with 100 μl each of human SAP containing samples (standard solutions or serum dilutions in ELISA buffer) for 2 hours at 20° C. […] The plates are washed with 5 mM CaCl2, incubated for 2 hours at 20° C. with 100 μl of rabbit antiserum to human SAP (Calbiochem) diluted 1:10^4 with ELISA buffer, washed again with 5 mM CaCl2, and incubated overnight in a water-saturated atmosphere at 20° C. with 100 μl of horseradish peroxidase conjugated donkey anti-rabbit Ig antiserum (Amersham Int., Amersham, UK) diluted 1:5000 with ELISA buffer. The plates are washed, then developed with 100 μl per well of buffered o-phenylenediamine (100 mg in 48.6 ml 0.1M citric acid and 51.4 ml 0.2M Na2 HPO4, pH 5.0) containing 0.03% H2 O2 in the dark at 20° C. for 15 minutes. The reaction is stopped by addition of 25 μl 2.5M H2 SO4 and the optical density of the colour developed by the enzyme reaction determined at 492 nm using a Titertek® multiscan spectrophotometer (Flow Laboratories). […]

[3] = Retention of SAP on TNP-Sepharose column; format: binding, human; settings: absence of Ca^2+ ions, TBS
[4] = ELISA for SAA: binding of human SAA to polystyrene

Molecule	inhibition of SAP binding to TNP-KLH coated polystyrene, in words [1]	IC50 [1] [mM]	further results
Nc1ccc([As](=O)(O)O)cc1 [p-aminophenyl-arsonic acid]	Inhibiting properties	27.3 ± 4.9	–
O=C(O)CN(CCOCCOCCN(CC(=O)O)CC(=O)O)CC(=O)O [EGTA, 1,2-di(2-aminoethoxy)ethane-N,N,N',N'-tetraacetic acid]	inhibitors of SAP binding at concentrations equal or in excess of the Ca^2+ concentration	17 ± 2.2	–
O=[N+]([O-])c1cc([N+](=O)[O-])c2ccc(S(=O)(=O)O)cc2c1O [2,4-dinitro-1-naphthol-7-sulphonic acid]	Inhibiting properties	43.3 ± 5.8	–
pectic acid	Inhibiting properties	–	concentration at 50% inhibition of human SAP binding to TNP-KLH coated polystyrene [1]: 0.2 ± 0.07 µg/mL
O=C(O)CN(CCN(CC(=O)O)CC(=O)O)CC(=O)O [EDTA, ethylenediamine-N,N,N',N'-tetraacetic acid]	inhibitors of SAP binding at concentrations equal or in excess of the Ca^2+ concentration	5.35 ± 1.3	–
TNP-BSA: prepared from BSA and 2,4,6-trinitrobenzenesulfonic acid yielding a conjugate with 15 TNP residues per BSA molecule	compete efficiently for SAP	–	concentration at 50% inhibition of human SAP binding to TNP-KLH coated polystyrene [1]: 0.33 ± 0.06 µg/mL
O=[N+]([O-])c1ccc([As](=O)(O)O)cc1 [p-nitrophenylarsonic acid]	Inhibiting properties	4.2 ± 1.3	–
SAP: serum amyloid P-component, a 9.5S α1 glycoprotein of 235'000 Dalton molecular weight	–	–	SAP binding at reduced CaCl2 concentration ([2]; 0.06 mM or lower concentrations of CaCl2): no SAP is bound; SAP binding at reduced CaCl2 concentration ([2]; 0.12 mM CaCl2): sharp decrease of SAP binding; retention of SAP on TNP-Sepharose [3]: not retained
SAA: α1 globulin consisting of a single polypeptide chain of molecular weight between 11'500 and 14'000 Dalton (protein, UniProt P0DJI8 19-122, looked up) Serum amyloid A-1 protein: RSFFSFLGEAFDGARDMWRAYSDMREANYIGSDKYFHARGNYDAAKRGPGGAWAAEVITDARENIQRFFGHGAEDSLADQAANEWGRSGKDPNHFRPAGLPEKY	–	–	binding of human SAA to KLH-coated polystyrene and polystyrene alone, in words ([4]; KLH-coated polystyrene and polystyrene alone): Substantial binding; binding of human SAA to polystyrene coated with TNP-KLH, in words ([4]; TNP-KLH coated polystyrene): very efficiently; binding of human SAA when Ca^2+ is omitted, in words ([4]; TNP-KLH coated polystyrene, Ca^2+ omitted): without loss in binding efficiency
